Source: PubChem BioAssay AID1963426 (Molecular Pharmacology Branch, DTP, NCI, 2024)

Tested on: 186277-243-T-J2-PDC complex spheroid growth, % test/control
Assay: Anticancer human tumor 186277-243-T-J2-PDC patient-derived colon adenocarcinoma cell line growth inhibition [Asc]
Details: for IC50: curve of first compound; for viability, T/C: stronger effect = lower value
Procedure, shortened: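 Spheroid model: tumor line + HUVEC + hMSC. Single agents and combinations; top conc. at/near clinical Cmax (10 microM if undetermined), half-log dilutions. DMSO stocks at 800-fold test concentration.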
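Also: spheroids exposed to agents for 7 days.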
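For viability, T/C in this document: 100% = DMSO vehicle control wells.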

Structure (SMILES): C#Cc1c(F)ccc2cc(O)cc(-c3ncc4c(N5CC6CCC(C5)N6)nc(OCC56CCCN5CC(F)C6)nc4c3F)c12 (stereo not given) + Cc1c(S(C)(=O)=O)c(-c2cc(F)cc(N3CCN(c4ccc(NS(=O)(=O)c5ccc(NC(CCN6CCC(C(=O)OCCCP(=O)(O)O)CC6)CSc6ccccc6)c(S(=O)(=O)C(F)(F)F)c5)cc4)CC3)c2)c(-c2ccc(Cl)cc2)n1C(C)C
- IC50 (second compound 0.1 µM): 178 nM
- IC50 (second compound 0.316 µM): 127 nM
- IC50 (second compound 1 µM): 114 nM
- IC50 (second compound 3.16 µM): 91.9 nM
- IC50 (second compound 10 µM): 87.3 nM
- viability, T/C (second compound 0.1 µM, first compound 0.0316 µM): 91.5%
- viability, T/C (second compound 0.1 µM, first compound 0.1 µM): 69.7%
- viability, T/C (second compound 0.1 µM, first compound 0.316 µM): 30.2%
- viability, T/C (second compound 0.1 µM, first compound 1 µM): 11.3%
- viability, T/C (second compound 0.1 µM, first compound 3.16 µM): 6.43%
- viability, T/C (second compound 0.1 µM, first compound 10 µM): 5.27%
- viability, T/C (second compound 0.316 µM, first compound 0.0316 µM): 115%
- viability, T/C (second compound 0.316 µM, first compound 0.1 µM): 56.9%
- viability, T/C (second compound 0.316 µM, first compound 0.316 µM): 23.6%
- viability, T/C (second compound 0.316 µM, first compound 1 µM): 7.76%
- viability, T/C (second compound 0.316 µM, first compound 3.16 µM): 3.89%
- viability, T/C (second compound 0.316 µM, first compound 10 µM): 3.47%
- viability, T/C (second compound 1 µM, first compound 0.0316 µM): 86.3%
- viability, T/C (second compound 1 µM, first compound 0.1 µM): 54%
- viability, T/C (second compound 1 µM, first compound 0.316 µM): 18.7%
- viability, T/C (second compound 1 µM, first compound 1 µM): 5.48%
- viability, T/C (second compound 1 µM, first compound 3.16 µM): 2.03%
- viability, T/C (second compound 1 µM, first compound 10 µM): 1.87%
- viability, T/C (second compound 3.16 µM, first compound 0.0316 µM): 87%
- viability, T/C (second compound 3.16 µM, first compound 0.1 µM): 47.1%
- viability, T/C (second compound 3.16 µM, first compound 0.316 µM): 8.29%
- viability, T/C (second compound 3.16 µM, first compound 1 µM): 2.66%
- viability, T/C (second compound 3.16 µM, first compound 3.16 µM): 1.51%
- viability, T/C (second compound 3.16 µM, first compound 10 µM): 1.34%
- viability, T/C (second compound 10 µM, first compound 0.0316 µM): 76.1%
- viability, T/C (second compound 10 µM, first compound 0.1 µM): 46.5%
- viability, T/C (second compound 10 µM, first compound 0.316 µM): 5.7%
- viability, T/C (second compound 10 µM, first compound 1 µM): 1.72%
- viability, T/C (second compound 10 µM, first compound 3.16 µM): 0.91%
- viability, T/C (second compound 10 µM, first compound 10 µM): 0.74%

Structure (SMILES): Cc1nc(N2CCC3(CC2)COC(C)C3N)c(CO)nc1Sc1ccnc(N)c1Cl (stereo not given) + Cc1c(S(C)(=O)=O)c(-c2cc(F)cc(N3CCN(c4ccc(NS(=O)(=O)c5ccc(NC(CCN6CCC(C(=O)OCCCP(=O)(O)O)CC6)CSc6ccccc6)c(S(=O)(=O)C(F)(F)F)c5)cc4)CC3)c2)c(-c2ccc(Cl)cc2)n1C(C)C
- IC50 (second compound 0.1 µM): > 3000 nM
- IC50 (second compound 0.316 µM): > 3000 nM
- IC50 (second compound 1 µM): > 3000 nM
- IC50 (second compound 3.16 µM): > 3000 nM
- IC50 (second compound 10 µM): > 3000 nM
- viability, T/C (second compound 0.1 µM, first compound 0.00949 µM): 112%
- viability, T/C (second compound 0.1 µM, first compound 0.03 µM): 99%
- viability, T/C (second compound 0.1 µM, first compound 0.0949 µM): 106%
- viability, T/C (second compound 0.1 µM, first compound 0.3 µM): 116%
- viability, T/C (second compound 0.1 µM, first compound 0.949 µM): 98.1%
- viability, T/C (second compound 0.1 µM, first compound 3 µM): 96.1%
- viability, T/C (second compound 0.316 µM, first compound 0.00949 µM): 116%
- viability, T/C (second compound 0.316 µM, first compound 0.03 µM): 94.9%
- viability, T/C (second compound 0.316 µM, first compound 0.0949 µM): 112%
- viability, T/C (second compound 0.316 µM, first compound 0.3 µM): 117%
- viability, T/C (second compound 0.316 µM, first compound 0.949 µM): 107%
- viability, T/C (second compound 0.316 µM, first compound 3 µM): 110%
- viability, T/C (second compound 1 µM, first compound 0.00949 µM): 116%
- viability, T/C (second compound 1 µM, first compound 0.03 µM): 97.7%
- viability, T/C (second compound 1 µM, first compound 0.0949 µM): 114%
- viability, T/C (second compound 1 µM, first compound 0.3 µM): 121%
- viability, T/C (second compound 1 µM, first compound 0.949 µM): 126%
- viability, T/C (second compound 1 µM, first compound 3 µM): 107%
- viability, T/C (second compound 3.16 µM, first compound 0.00949 µM): 112%
- viability, T/C (second compound 3.16 µM, first compound 0.03 µM): 104%
- viability, T/C (second compound 3.16 µM, first compound 0.0949 µM): 111%
- viability, T/C (second compound 3.16 µM, first compound 0.3 µM): 115%
- viability, T/C (second compound 3.16 µM, first compound 0.949 µM): 111%
- viability, T/C (second compound 3.16 µM, first compound 3 µM): 121%
- viability, T/C (second compound 10 µM, first compound 0.00949 µM): 97.6%
- viability, T/C (second compound 10 µM, first compound 0.03 µM): 96.3%
- viability, T/C (second compound 10 µM, first compound 0.0949 µM): 115%
- viability, T/C (second compound 10 µM, first compound 0.3 µM): 104%
- viability, T/C (second compound 10 µM, first compound 0.949 µM): 100%
- viability, T/C (second compound 10 µM, first compound 3 µM): 111%
